Results on 2 molecules are retold here after patent US20030199671A1, “Binding molecules for Fc-region polypeptides” (priority 2001, published 2003).

Usually Kd stands for the concentration at which binding is half-saturated.

The target of data set [1] is T1, IgG4 (Homo sapiens, UniProt P01861). It counts as binding. Set-up: all human subtypes derived from myeloma patients; purchased Calbiochem 400126; host or cells: myeloma patients. The note with it: Table 9; immobilized peptide, 5.0 mg/ml resin load. In short, it runs like this: (§1)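 Read-out is A280 of unbound IgG (1.4 mg/ml extinction coefficient), with percent bound derived against non-filtered or negative controls. Targets were incubated with immobilized peptides in PBST or TBST for 1-1.5 h at room temperature. Hydrolyzed Sepharose and immobilized Protein A serve as negative and positive controls.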

The target in data set [2] is T2, IgG3 (Homo sapiens, UniProt P01860). The data set is classed as binding. Details: all human subtypes derived from myeloma patients; purchased Calbiochem 400124; host or cells: myeloma patients. The note with it: Table 9; immobilized peptide, 5.0 mg/ml resin load. In short, it runs like this:
(§2)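 Steps: dilute IgG in PBST or TBST; incubate with immobilized peptide 1-1.5 h, RT; collect unbound by centrifugation; measure A280; wash three times; elute with 0.1 M sodium bicarbonate pH 8.5 and/or 0.1 M sodium citrate pH 4.0 for 30-60 min and quantitate.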

The target in another data set is T3, human plasma IgG2 (Homo sapiens, UniProt P01859).
T3 construct: the individual human plasma IgG isoforms: IgG1, IgG2, IgG3, or IgG4; purchased Calbiochem; host or cells: human plasma
The data set can be described thus: Fluorescence anisotropy binding, fluorescein-labeled peptide. The procedure: (§3) All measurements were performed in 384 well microplates with 20 nM fluorescein-labeled peptide and various concentrations of the IgG isoform in a volume of between 10 and 20 μl using a Tecan Polarion fluorescence polarization plate reader. All binding buffers included 0.01% (v/v) Tween 20 to prevent peptide adsorption to the microplate. The binding mixture was equilibrated for 10 minutes in the microplate at 30° C. prior to performing the measurement.
(§4) Peptides were synthesized, fluorescein-labeled and HPLC purified as described above. Binding studies were performed using either a mixture of human plasma IgG isoforms (the Fc protein) or the individual human plasma IgG isoforms: IgG1, IgG2, IgG3, or IgG4.
(§5) Measurements were performed in 384-well microplates with 2 nM fluorescein-labeled peptide and a varied concentration of the IgG isoform target in a volume of 10 μl using a Tecan Polarion fluorescence polarization plate reader. The Fc binding buffer was 50 mM Tris-HCl, 200 mM NaCl, pH 8.0, 0.01% Tween 20. The IgG binding buffer was PBS with 0.01% Tween 20. The binding mixtures were equilibrated for 10 minutes in the microplate at 30° C. prior to performing the measurements.
(In general: Fluorescence polarisation rises when a labelled molecule tumbles more slowly, as on binding a larger partner.)

The target of a further data set is T4, human plasma IgG1 (Homo sapiens, UniProt P01857).
T4 construct: the individual human plasma IgG isoforms: IgG1, IgG2, IgG3, or IgG4; purchased Calbiochem; host or cells: human plasma
Described as above. The procedure: as §3, §4, §5

For another data set, the target named is T5, human plasma IgG4 (Homo sapiens, UniProt P01861).
T5 construct: the individual human plasma IgG isoforms: IgG1, IgG2, IgG3, or IgG4; purchased Calbiochem; host or cells: human plasma
The description is as above. As to the method:
(§6) Peptides were synthesized by BACHEM Bioscience, Inc., (King of Prussia, Pa.), fluorescein labeled and purified by HPLC. Binding studies were performed using either a mixture of human plasma IgG isoforms (the Fc target) or the individual human plasma IgG isoforms: IgG1, IgG2, IgG3, or IgG4. All Fc target proteins were obtained from Calbiochem.
as §3, §4, §5

The next data set has as its target T6, human plasma IgG3 (Homo sapiens, UniProt P01860).
T6 construct: the individual human plasma IgG isoforms: IgG1, IgG2, IgG3, or IgG4; purchased Calbiochem; host or cells: human plasma
Described as above. The procedure:
as §6, §3, §4, §5

Data set [3] has as its target Fc (mixture of human plasma IgG isoforms). The description is as above. The conditions noted are these: pH 8.0, 0.05 M Tris-HCl, 0.2 M NaCl. The procedure: as §6, §3, §4, §5
The target in another data set is T7, human IgG2 (Homo sapiens, UniProt P01859).
T7 construct: all human subtypes derived from myeloma patients; purchased Calbiochem 400122; host or cells: myeloma patients
The data set is classed as binding. The note with it: Table 9; immobilized peptide, 5.0 mg/ml resin load. Summed up: as §1

In another data set the target is T8, human IgG1 (Homo sapiens, UniProt P01857).
T8 construct: all human subtypes derived from myeloma patients; purchased Calbiochem 400120; host or cells: myeloma patients
It counts as binding. The note with it: Table 9; immobilized peptide, 5.0 mg/ml resin load. Summed up:
as §2

A further data set relates to human IgG. The data set is classed as binding. The conditions noted are these: Table 11; unfractionated IgG. In short, it runs like this: (§7)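 Static binding, peptide resin + IgG, 1-1.5 h RT with shaking, PBST pH 7.2 or TBST pH 7.5. Flow-through read at A280 vs buffer blank; % bound = control minus unbound. Elution at pH 8.5 bicarbonate and/or pH 4.0 citrate, 30-60 min.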

The test system of the next data set is goat IgG. It counts as binding. The conditions noted are these: Table 11; unfractionated IgG. Summed up:
as §7

The next data set has as its system bovine IgG. The data set is classed as binding. The note with it: Table 11; unfractionated IgG. Summed up: as §7
A further data set has as its system mouse IgG. The data set is classed as binding. The conditions noted are these: Table 11; unfractionated IgG. In short, it runs like this:
as §7

Data set [4] has as its target T2, IgG3. In words: Competition between synthetic peptides and Protein A for Fc binding. Set-up: the individual human plasma IgG isoforms: IgG1, IgG2, IgG3, or IgG4; purchased Calbiochem; host or cells: human plasma; key: NB: no detected binding.; ?: partial decrease in anisotropy with added competitor. The note with it: 5 mg/ml protein A. As to the method: (§8) Cross-competition studies between peptides were performed using 20 nM fluorescein-labeled peptide and 1-2 μM IgG1, IgG2, IgG3, or IgG4 in the presence and absence of a maximum of 100 μM unlabeled peptide or 5 mg/ml protein A.
(§9) This is consistent with the fact that Protein A is known not to bind human IgG3.

Data set [5] addresses T1, IgG4. Described as above. Set-up: the individual human plasma IgG isoforms: IgG1, IgG2, IgG3, or IgG4; purchased Calbiochem; host or cells: human plasma; key: NB: no detected binding.; ?: partial decrease in anisotropy with added competitor. The conditions noted are these: 5 mg/ml protein A. As to the method:
as §8, §9

For data set [6] the following is noted: cited from earlier work.
[7] abbreviates: pH 9.3, 0.01 M sodium bicarbonate.

In the case of `CC(=O)N[C@@H](C)C(=O)NCC(=O)N[C@@H](Cc1ccc(O)cc1)C(=O)N[C@@H](Cc1ccc(O)cc1)C(=O)N[C@@H](Cc1c[nH]c2ccccc12)C(=O)N[C@H]1CSSC[C@@H](C(=O)N2CCC[C@H]2C(=O)N[C@@H](CC(=O)O)C(=O)N[C@@H](CCC(N)=O)C(=O)NCC(=O)N[C@H](C(=O)N2CCC[C@H]2C(=O)NCC(=O)N2CCC[C@H]2C(=O)N[C@@H](CCC(=O)O)C(=O)NCC(=O)NCC(=O)NCC(=O)N[C@@H](CCCCN)C(N)=O)[C@@H](C)O)NC(=O)[C@H](CC(C)C)NC(=O)CNC(=O)[C@H](Cc2c[nH]c3ccccc23)NC(=O)[C@H](Cc2ccc(O)cc2)NC(=O)[C@H](CC(N)=O)NC1=O` [DX254], the “% IgG Capture - Batch Binding, Human IgG4” value on IgG4 [1] is 6%. The “% IgG Capture - Batch Binding, Human IgG3” value on IgG3 [2] was found to be 36%. Moreover, the Kd at human plasma IgG2 (pH 5.7, 0.01 M Tris-acetate) was more than 1 µM; on human plasma IgG2 (pH 7.4, 0.01 M Tris-HCl) it was 2 ± 0.7 µM; at human plasma IgG2 (pH 7.4, PBS, […] NaCl), 1.1 ± 0.3 µM; at human plasma IgG2 (setting [7]) it was 2 ± 2.7 µM; on human plasma IgG1 (pH 5.7, 0.01 M Tris-acetate, 0 M NaCl) it was less than 0.1 µM; at human plasma IgG1 (pH 7.4, 0.01 M Tris-HCl), less than 2 µM. Moreover, the Kd on human plasma IgG1 (pH 7.4, PBS, […] NaCl) was 0.4 ± 0.2 µM; on human plasma IgG1 (setting [7]), 0.4 ± 0.4 µM; at human plasma IgG4 (pH 5.7, 0.01 M Tris-acetate), more than 10 µM; on human plasma IgG4 (pH 7.4, PBS, […] NaCl), more than 10 µM; at human plasma IgG4 (setting [7]), more than 10 µM; on human plasma IgG3 (pH 5.7, 0.01 M Tris-acetate), 0.3 ± 0.3 µM. In addition, the Kd is more than 10 µM on human plasma IgG3 (pH 7.4, 0.01 M Tris-HCl); more than 10 µM at human plasma IgG3 (setting [7]); 1.6 ± 0.6 µM in [3]. For the same molecule, at human IgG2, the “% IgG Capture - Batch Binding, Human IgG2” value is recorded as 16%. Besides, the “% IgG Capture - Batch Binding, Human IgG1” value at human IgG1 is reported as 28%. The “% IgG Capture - Batch Binding, Human IgG” value in the data set with human IgG came out at 16%. Moreover, in the data set on goat IgG, the “% IgG Capture - Batch Binding, Goat IgG” value is 0%. Further, the “% IgG Capture - Batch Binding, Bovine IgG” value in the data set on bovine IgG amounted to 0%. The “% IgG Capture - Batch Binding, Mouse IgG” value in the data set with mouse IgG is given as 2%. Also, at IgG3 [4], the “Competition between labeled peptide and Protein A, IgG3” value is on record as “?”. Further, the “Competition between labeled peptide and Protein A, IgG4” value on IgG4 [5] was “NB”.
For `O=C(O)c1ccccc1-c1c2cc(F)c(=O)cc-2oc2cc(O)c(F)cc12` [Oregon Green], the “pKa of the carboxylic acid group” value in data set [6] is on record as 4.7.
